Results taken from publication PMC9820167, “Design and Synthesis of Conformationally Flexible Scaffold as Bitopic Ligands for Potent D3-Selective Antagonists” (International Journal of Molecular Sciences, 2022).
Like-named read-outs stand apart in the source and are kept apart here.

How the values were obtained:
human D3 receptors [1] = molecular target: T1, human D3 receptors (Homo sapiens, UniProt P35462); assay: β-arrestin recruitment assay (antagonist mode, competition with dopamine); assay type: cell-based; parameters: expressed in transfected cells; settings: for Emax: percentage of the maximum inhibition of dopamine at EC80 concentration, read-out: Imax (% Control); for IC50: potency for D3 receptors, CHO-K1 cells, vs 30 nM (EC80) dopamine, mean ± SD, three experiments, read-out: IC50
T1 sequence (P35462 whole entry): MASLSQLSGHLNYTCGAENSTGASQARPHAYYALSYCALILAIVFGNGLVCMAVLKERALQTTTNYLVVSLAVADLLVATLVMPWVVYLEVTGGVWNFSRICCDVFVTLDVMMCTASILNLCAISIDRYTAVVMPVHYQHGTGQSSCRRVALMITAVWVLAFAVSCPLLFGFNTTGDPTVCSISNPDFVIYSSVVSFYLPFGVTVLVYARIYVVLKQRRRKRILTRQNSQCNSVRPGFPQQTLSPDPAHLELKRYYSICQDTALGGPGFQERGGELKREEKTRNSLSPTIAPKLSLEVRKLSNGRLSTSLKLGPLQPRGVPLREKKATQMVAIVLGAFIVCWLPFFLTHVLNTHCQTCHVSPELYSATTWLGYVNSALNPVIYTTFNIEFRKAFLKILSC
Protocol: (§1) Two different assays were used to evaluate the properties of the analogs described above. The receptor binding affinity was measured by radioligand binding assays using [^125I]IABN with D2 or D3 receptors highly expressed HEK293 cells. The functional activity of the analogs was determined using a β-arrestin recruitment assay. The assay was initially conducted in agonist binding mode to confirm that they function as antagonists at the D3 receptor. Once this efficacy was confirmed, the assay was conducted in antagonist mode to determine the ability of the antagonist to compete with dopamine at the D3 receptor. The results of the antagonist mode assay are reported as IC50 values.
CHO-K1 cells which were overexpressed human D3 receptors were cultured in assaycomplete^TM cell culture kit 107. Cells were seeded at a density of 25,000 cells per well of 96-well plate, and incubated at 5% CO2, 37 °C. Two days later, test compounds were dissolved in DMSO, and diluted with 11-point series in phosphate-buffered saline (PBS). Prepared compounds were added to the cells, and it was incubated for 30 min at 5% CO2, 37 °C. Then, cells were treated with 30 nM (EC80) of dopamine, and the plate was incubated another 90 min. PathHunter^TM detection reagent was added to each well, and then plate was incubated for 80 min at RT in the dark. The chemiluminescent signal was measured by PerkinElmer Enspire plate reader (PerkinElmer, Boston, MA). Data were analyzed by Prism followed by non-linear regression.

human D3 receptors [2] = molecular target: T1, human D3 receptors; assay: Radioligand binding assay with [125I]IABN, D3 receptor; parameters: expressed in transfected cells; host or cells: HEK293; settings: for Ki: [125I]IABN, D3 receptors expressed in HEK cells, mean ± SEM, three experiments, HCl salts, read-out: Ki ± SEM (nM) D3; for D2/D3: selectivity ratio of Ki D2 / Ki D3 (fold)
Protocol: as §1
(§2) Ki values for D2 and D3 receptors were measured using [^125I]IABN in human D2 and D3 receptors expressed in HEK cells, respectively. A filtration binding assay was used to characterize membrane-associated receptor binding properties. The details for the procedures were described in the literature.

human D2 receptors = molecular target: T2, human D2 receptors (Homo sapiens, UniProt P14416); assay: Radioligand binding assay with [125I]IABN, D2 receptor; settings: [125I]IABN, D2 receptors expressed in HEK cells; mean ± SEM, three experiments; HCl salts; read-out: Ki ± SEM (nM) D2
T2 construct: expressed in transfected cells; host or cells: HEK293
T2 sequence (P14416 whole entry): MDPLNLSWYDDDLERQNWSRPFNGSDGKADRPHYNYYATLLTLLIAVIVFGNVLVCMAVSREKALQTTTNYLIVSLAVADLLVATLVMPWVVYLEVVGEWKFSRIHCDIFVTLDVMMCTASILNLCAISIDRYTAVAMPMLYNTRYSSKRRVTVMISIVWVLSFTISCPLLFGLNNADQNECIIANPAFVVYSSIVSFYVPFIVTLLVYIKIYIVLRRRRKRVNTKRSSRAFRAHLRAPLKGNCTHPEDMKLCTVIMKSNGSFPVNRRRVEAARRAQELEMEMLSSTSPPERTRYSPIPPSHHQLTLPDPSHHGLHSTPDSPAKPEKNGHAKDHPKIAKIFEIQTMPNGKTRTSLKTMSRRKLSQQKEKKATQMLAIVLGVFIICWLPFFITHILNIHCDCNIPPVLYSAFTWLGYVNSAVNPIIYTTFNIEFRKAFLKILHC
Protocol: Two different assays were used to evaluate the properties of the analogs described above. The receptor binding affinity was measured by radioligand binding assays using [^125I]IABN with D2 or D3 receptors highly expressed HEK293 cells. The functional activity of the analogs was determined using a β-arrestin recruitment assay. […] The results of the antagonist mode assay are reported as IC50 values.
as §2

D2 receptors = settings: cited from earlier work

Row | Compound | Emax (human D3 receptors [1]) | IC50 (human D3 receptors [1]) | Ki (human D3 receptors [2]) | D2/D3 (human D3 receptors [2]) | Ki (human D2 receptors) | Ki (D2 receptors; read-out: Ki for D2/D3 receptors (D2)) | Ki (D2 receptors; read-out: Ki D2)
1 | CCN(CCCCCN(C)C)CCNC(=O)c1cc(CCCF)cc(OC)c1OC [6b, N-(2-((5-(Dimethylamino)pentyl)(ethyl)amino)ethyl)-5-(3-fluoropropyl)-2,3-dimethoxybenzamide] | 98.4 ± 2.9% | 430 ± 467 nM | 1240 ± 438 nM | 2.3 | 2810 ± 571 nM | – | –
2 | CCN(CCCCNC(=O)c1ccc(-c2cccs2)cc1)CCNC(=O)c1cc(Br)cc(OC)c1OC [9b, 5-Bromo-N-(2-(ethyl(4-(4-(thiophen-2-yl)benzamido)butyl)amino)ethyl)-2,3-dimethoxybenzamide] | 70.8 ± 7.3% | 104 ± 136 nM | 8 ± 0.8 nM | 12.9 | 103 ± 14 nM | – | –
3 | CCN(CCCCSc1nnc(-c2ccccc2)n1C)CCNC(=O)c1cc(Br)cc(OC)c1OC [11a, 5-Bromo-N-(2-(ethyl(4-((4-methyl-5-phenyl-4H-1,2,4-triazol-3-yl)thio)butyl)amino)ethyl)-2,3-dimethoxybenzamide] | – | – | 125 ± 2 nM | 2.7 | 342 ± 23 nM | – | –
4 | CCN(CCCCCN(C)C)CCNC(=O)c1cc(Br)cc(OC)c1OC [6d, 5-Bromo-N-(2-((5-(dimethylamino)pentyl)(ethyl)amino)ethyl)-2,3-dimethoxybenzamide] | 94 ± 6.4% | 152 ± 185 nM | 141 ± 26 nM | 3.2 | 449 ± 90 nM | – | –
5 | CCN(CCCCN(C)C)CCNC(=O)c1cc(CCCF)cc(OC)c1OC [6a, N-(2-((4-(Dimethylamino)butyl)(ethyl)amino)ethyl)-5-(3-fluoropropyl)-2,3-dimethoxybenzamide] | 92.7 ± 5.4% | > 1000 nM | 1760 ± 942 nM | 2.6 | 4560 ± 2450 nM | – | –
6 | CCN1CCC[C@H]1CNC(=O)c1cc(Br)cc(OC)c1OC [[^11C]FLB457, FLB457] | – | – | – | – | – | 0.02 nM | –
7 | CCN(CCCCN(C)C)CCNC(=O)c1cc(Br)cc(OC)c1OC [6c, 5-Bromo-N-(2-((4-(dimethylamino)butyl)(ethyl)amino)ethyl)-2,3-dimethoxybenzamide] | 98 ± 5.6% | > 1000 nM | 1630 ± 165 nM | 3.3 | 5420 ± 1040 nM | – | –
8 | CCN(CCCCCSc1nnc(-c2ccccc2)n1C)CCNC(=O)c1cc(Br)cc(OC)c1OC [11b, 5-Bromo-N-(2-(ethyl(5-((4-methyl-5-phenyl-4H-1,2,4-triazol-3-yl)thio)pentyl)amino)ethyl)-2,3-dimethoxybenzamide] | – | – | 22.2 ± 1.8 nM | 4.6 | 89.7 ± 3.6 nM | – | –
9 | C=CCN1CCC[C@H]1CNC(=O)c1cc(CCCF)cc(OC)c1OC [fallypride] | – | – | – | – | – | – | 0.02 nM

More lines, main results first:

Row | Emax (human D3 receptors [1]) | IC50 (human D3 receptors [1]) | Ki (human D3 receptors [2]) | D2/D3 (human D3 receptors [2]) | Ki (human D2 receptors) | Compound | Ki (D2 receptors; read-out: Ki for D2/D3 receptors (D2)) | Ki (D2 receptors; read-out: Ki D2)
10 | – | – | > 1000 nM | – | > 1000 nM | CCN(C)CCCNC(=O)c1ccc(-c2cccs2)cc1 [compound 14, N-(3-(Ethyl(methyl)amino)propyl)-4-(thiophen-2-yl)benzamide] | – | –
11 | 101 ± 7.9% | 51.6 ± 40.8 nM | 5.8 ± 1 nM | 46.7 | 243 ± 15 nM | C=CCN(CCCNC(=O)c1ccc(-c2cccs2)cc1)CCNC(=O)c1cc(Br)cc(OC)c1OC [20b, N-(2-(Allyl(3-(4-(thiophen-2-yl)benzamido)propyl)amino)ethyl)-5-bromo-2,3-dimethoxybenzamide] | – | –
12 | 85.7 ± 13.1% | 2.7 ± 0.6 nM | 6.1 ± 0.6 nM | 53.7 | 327 ± 32 nM | CCN(CCCNC(=O)c1ccncc1)CCNC(=O)c1cc(Br)cc(OC)c1OC [21f, N-(3-((2-(5-Bromo-2,3-dimethoxybenzamido)ethyl)(ethyl)amino)propyl)isonicotinamide] | – | –
13 | 75.2 ± 4.8% | 19.6 ± 23.7 nM | 13.2 ± 0.5 nM | 39.8 | – | CCN(CCCNC(=O)c1ccnc2ccccc12)CCNC(=O)c1cc(Br)cc(OC)c1OC [21b, N-(3-((2-(5-Bromo-2,3-dimethoxybenzamido)ethyl)(ethyl)amino)propyl)quinoline-4-carboxamide] | – | –
14 | 73.8 ± 14.9% | 4.1 ± 2.1 nM | 11.2 ± 1.4 nM | 22.1 | 248 ± 19 nM | CCN(CCCNC(=O)c1cccc(N(C)C)c1)CCNC(=O)c1cc(Br)cc(OC)c1OC [21h, 5-Bromo-N-(2-((3-(3-(dimethylamino)benzamido)propyl)(ethyl)amino)ethyl)-2,3-dimethoxybenzamide] | – | –
15 | – | – | 21.8 ± 5.1 nM | – | 89.2 ± 5.6 nM | CCN(C)CCNC(=O)c1cc(Br)cc(OC)c1OC [compound 12, 5-Bromo-N-(2-(ethyl(methyl)amino)ethyl)-2,3-dimethoxybenzamide] | – | –
16 | – | – | 299 ± 101 nM | 1.9 | 574 ± 170 nM | COc1cc(Br)cc(C(=O)NCCN(CCCNC(=O)c2ccc(-c3cccs3)cc2)Cc2ccc(F)cc2)c1OC [20c, 5-Bromo-N-(2-((4-fluorobenzyl)(3-(4-(thiophen-2-yl)benzamido)propyl)amino)ethyl)-2,3-dimethoxybenzamide] | – | –
